Laboratory results published in patent US8258309B2, “Azapeptide derivatives” (priority 2007, dated 2012).

Columns and labels:
[1] = Microsomal assay: stability in human liver microsomes; type: in vitro ADME; settings: human, liver microsomes, pH 7.4, human liver microsomes, repeated assay (Table 3); read-out: t1/2 (min) Avg ± SD (n = 3)
Experimental: Microsomal Assay. Human liver microsomes (20 mg/mL, pool of 50 individuals) were obtained from Xenotech LLC (Lenexa, Kans.). The incubation mixtures are prepared as follows. Stock solutions (10 mM) solutions of test Compounds 103, 106, 122 and of atazanavir were prepared in DMSO. The 10 mM stock solutions were diluted to 1 mM in acetonitrile (ACN). […] The microsome-test compound mixtures were added to wells of a 2 mL 96-well deep well polypropylene plate in triplicate. The plate was warmed to 37° C. before initiating the reactions by addition of prewarmed NADPH in 0.1 M potassium phosphate buffer, pH 7.4, containing 3 mM MgCl2. The final reaction mixture composition contained: • Liver Microsomes 0.5 mg/mL • NADPH 2 mM • Potassium Phosphate, pH 7.4 100 mM • Magnesium Chloride 3 mM • Test Compound 1.0 μM. The reaction mixtures were incubated at 37° C. and 50 μL aliquots were removed at 0, 3, 7, 12, 20, and 30 minutes and added to shallow-well 96-well plates which contained 50 μL of ice-cold ACN with internal standard to stop the reactions. The plates were stored at −20° C. for 30 minutes, after which 100 μL of water was added to the wells of the plate before centrifugation to pellet precipitated proteins. Supernatants were transferred to another 96-well plate and analyzed for amounts of parent remaining by LC-MS/MS using an Applied Biosystems API 4000 mass spectrometer. […] Data analysis was performed using Microsoft Excel Software. […] The results are shown in FIGS. 2 and 3 and in Table 3, below: […]

[2] = Chimp pharmacokinetics Run A, IV or PO co-dosing of atazanavir and Compounds 114, 120, 122; type: in vivo, chimpanzee; settings: for concentration at 24 h: concentration detected intact in urine
Experimental: Chimp Pharmacokineties. Run A: A 4 mg/mL solution of atazanavir and each of Compounds 114, 120 and 122 were prepared in 10% DMI (dimethyl isosorbide), 15% EtOH, 35% PG in D5W. Specifically, for each compound, 240 mgs of compound was dissolved in a solution composed of 6 mL of DMI, 9 mL of EtOH and 21 mL PG. Once the compound was fully dissolved, 24 mL of D5W was added and the solution mixed.
Fifty-five mL of each drug solution is then combined and the mixture was sterile filtered using a 0.2 μm filter. This produced 220 mL of a 1:1:1:1 mixture atazanavir:Compound 114:Compound 120:Compound 122. The final concentration of each drug in the solution was 1 mg/mL. Each animal received 50 mL of this solution through either IV or PO routes.
(§1) Four chimps (two male and two female) were used in this study and were fasted overnight prior to administration of the compound solution. Animals were sedated with ketamine and/or telazol prior to dosing. Intravenous dosing was achieved by IV infusion over 30 minutes.
(§2) Approximately 4.5 mL of blood was collected into vacutainer tubes with sodium heparin as an anticoagulant at 0 (preinfusion), 15 min., 29.5 min (immediately before the end of the infusion), and then at 6, 15, 30, and 45 minutes, and 1, 2, 4, 6, 8, 10, 12, 24 hours after the infusion is stopped. A similar procedure was used to collect blood after oral dosing with samples taken at 0 (predose), 15, and 30 minutes, and at 1, 1.5, 2, 4, 6, 8, 10, 12, 24 hours postdose. Following sample collection, the vacutainer tubes were rocked by hand several times to insure adequate mixing. Blood samples were placed immediately on wet ice and centrifuged within 1 hour from time of collection. Following centrifugation, the resulting plasma was stored frozen at −70° C. until analysis. The results are summarized in FIGS. 4 and 5 and tables 6 and 7.

in vivo = settings: chimpanzee, po; for concentration detected intact in urine: 24 h; for concentration at 24 h: concentration detected intact in urine
Experimental: as §1, §2
Run B: Same as Run A, except the dose was 150 mg orally of each of atazanavir and compounds 114 and 120, and the vehicle was 10 percent ethanol, 40 percent polypropylglycol in 2.5 percent citric acid.

HIV-1RF = test: HIV anti-viral activity in CEM-SS cells infected with HIV-1 (XTT); type: cell-based; settings: for EC50: Human immunodeficiency virus 1, CEM-SS
Experimental: The HIV antiviral activity of compound of the present invention was tested in CEM-SS cells infected with HIV-1. CEM-SS cells were passaged in T-75 flasks in RPMI 1640 medium supplemented with 10% heat inactivated fetal bovine serum, 2 mmol/L L-glutamine, 100 U/mL penicillin and 100 flg/mL streptomycin prior to use in the antiviral assay. On the day preceding the assay, the cells were split 1:2 to assure they were in an exponential growth phase at the time of infection. Total cell and viability quantification was performed using a hemocytometer and Trypan Blue dye exclusion. Cell viability was greater than 95% for the cells to be utilized in the assay. The cells were resuspended at 5×10^4 cells per mL in tissue culture medium and added to the drug-containing microtiter plates in a volume of 50 μL.
The virus used for the assay was the lymphocyte-tropic virus strain HIV-IRF. The virus was obtained from the NIH AIDS Research and Reference Reagent Program and stock virus pools were produced in CEM-SS cells. A pre-titered aliquot of virus was removed from the freezer (−80° C.) and allowed to thaw slowly to room temperature in a biological safety cabinet. Virus was resuspended and diluted into tissue culture medium such that the amount of virus added to each well in a volume of 50 μL was the amount determined to yield 85 to 95% cell killing at 6 days post-infection.
Each plate contains cell control wells (cells only), virus control wells (cells plus virus), compound toxicity wells (cells plus compound only), compound colorimetric control wells (compound only) as well as experimental wells (compound plus cells plus virus). Samples were tested in triplicate with eleven half-log dilutions per compound starting at 0.1 μM of compound. Compounds 104, 120 and 122 were tested, as was atazanavir and AZT. […]
Following incubation at 37° C. in a 5% CO2 incubator, the test plates were stained with the tetrazolium dye XTT (2,3-bis(2-methoxy-4-nitro-5sulfophenyl)-5-[(phenylamino)carbonyl]-2H-tetrazolium hydroxide). XTT-tetrazolium was metabolized by the mitochondrial enzymes of metabolically active cells to a soluble formazan product, allowing rapid quantitative analysis of the inhibition of HIV induced cell killing by anti-HIV test substances. XTT solution was prepared daily as a stock of 1 mg/mL in RPMI 1640. Phenazine methosulfate (PMS) solution was prepared at 0.15 mg/mL in PBS and stored in the dark at −20° C. XTT/PMS stock was prepared immediately before use by adding 40 μL of PMS per mL of XTT solution. Fifty microliters of XTT/PMS was added to each well of the plate and the plate was reincubated for 4 hours at 37° C. Plates were sealed with adhesive plate sealers and shaken gently or inverted several times to mix the soluble formazan product and the plate was read spectrophotometrically at 450/650 nm with a Molecular Devices Vmax plate reader.
Raw data was collected from the Softmax Pro 4.6 software and imported into a Microsoft Excel 2003 spreadsheet for analysis by linear curve fit calculations.

[3] = chimp A242E, PO, 24 hours, Run A
[4] = chimp A336C, IV, 24 hours, Run A

half-life at 1 μM [1] [min]	Ratio of urine concentration, compound:Atazanavir [2, 3]	Ratio of urine concentration, compound:Atazanavir [2, 4]	Ratio of urine concentration, compound:Atazanavir ([2]; chimpanzee, in vivo, iv, 24 h)	concentration detected intact in urine ([2]; chimpanzee, in vivo, iv, 24 h) [ng/mL]	concentration at 24 h ([2]; chimpanzee, in vivo, iv) [ng/mL]	Ratio of urine concentration, compound:Atazanavir ([2]; chimpanzee, in vivo, po, 24 h)	concentration detected intact in urine ([2]; chimpanzee, in vivo, po, 24 h) [ng/mL]	concentration at 24 h ([2]; chimpanzee, in vivo, po) [ng/mL]	concentration detected intact in urine (in vivo) [ng/mL]	concentration at 24 h (in vivo) [ng/mL]	EC50 (HIV-1RF; +0.5 mg/mL AAGP) [nM]	EC50 (HIV-1RF; +10 mg/mL HAS) [nM]	EC50 (HIV-1RF; +AAGP + HSA) [nM]	EC50 (HIV-1RF; No Serum Protein Added (cell culture medium)) [nM]	SMILES	fold less potent in the presence of HSA than in cell culture medium alone (HIV-1RF; 10 mg/mL HSA versus cell culture medium)
31.5 ± 0.8	1.8	1.5	1.3	2820	2750	1.8	963	1070	4580	2530					[2H]C([2H])([2H])OC(=O)N[C@H](C(=O)N[C@@H](Cc1ccccc1)[C@@H](O)CN(Cc1ccc(-c2ccccn2)cc1)NC(=O)[C@@H](NC(=O)OC)C(C)(C)C)C(C([2H])([2H])[2H])(C([2H])([2H])[2H])C([2H])([2H])[2H] [Compound 114, 1-Methyl-14-(methyl-d3)(3S,8S,9S,12S)-3-(1,1-dimethylethyl)-12-[(1,1-dimethylethyl)-d9]-8-hydroxy-4,11-dioxo-9-(phenylmethyl)-6-[[4-(2-pyridinyl)phenyl]methyl]-2,5,6,10,13-pentaazatetradecanedioate]	
26.9 ± 1.4	2.16	1.74	1.52	3110	3030	2.15	1110	1230	5030	2930	3	1	4	0.5	[2H]C([2H])([2H])OC(=O)N[C@H](C(=O)NN(Cc1ccc(-c2ccccn2)cc1)C[C@H](O)[C@H](Cc1ccccc1)NC(=O)[C@@H](NC(=O)OC([2H])([2H])[2H])C(C([2H])([2H])[2H])(C([2H])([2H])[2H])C([2H])([2H])[2H])C(C)(C)C [Compound 120, 1,14-Di(methyl-d3)(3S,8S,9S,125)-3-(1,1-dimethylethyl)-12-[(1,1-dimethylethyl)-d9]-8-hydroxy-4,11-dioxo-9-(phenlymethyl)-6-[[4-(2-pyridinyl)phenyl]methyl]-2,5,6,10,13-pentaazatetradecanedioate]	two- to greater than three-fold less potent
